Results reported in article PMC12770358, “Molecular defense strategy of volatile organic compound-emitting plants (order Piperales) against herbivorous mammals” (Communications Biology, 2025).

How the values were obtained:
Format in all cases: cell-based
TRPA1 [1] = molecular target: T1, TRPA1 (Homo sapiens, UniProt O75762, C641A); test: whole-cell patch clamp dose-response
T1 construct: hTRPA1 mutant expressed in HEK293 cells

TRPA1 [2] = molecular target: T2, TRPA1 (Homo sapiens, UniProt O75762); test: whole-cell and excised-patch (inside-out/outside-out) patch clamp, calcium imaging
T2 construct: Human TRPA1 (NM_007332) expressed in HEK293T cells
T2 sequence (O75762 whole entry): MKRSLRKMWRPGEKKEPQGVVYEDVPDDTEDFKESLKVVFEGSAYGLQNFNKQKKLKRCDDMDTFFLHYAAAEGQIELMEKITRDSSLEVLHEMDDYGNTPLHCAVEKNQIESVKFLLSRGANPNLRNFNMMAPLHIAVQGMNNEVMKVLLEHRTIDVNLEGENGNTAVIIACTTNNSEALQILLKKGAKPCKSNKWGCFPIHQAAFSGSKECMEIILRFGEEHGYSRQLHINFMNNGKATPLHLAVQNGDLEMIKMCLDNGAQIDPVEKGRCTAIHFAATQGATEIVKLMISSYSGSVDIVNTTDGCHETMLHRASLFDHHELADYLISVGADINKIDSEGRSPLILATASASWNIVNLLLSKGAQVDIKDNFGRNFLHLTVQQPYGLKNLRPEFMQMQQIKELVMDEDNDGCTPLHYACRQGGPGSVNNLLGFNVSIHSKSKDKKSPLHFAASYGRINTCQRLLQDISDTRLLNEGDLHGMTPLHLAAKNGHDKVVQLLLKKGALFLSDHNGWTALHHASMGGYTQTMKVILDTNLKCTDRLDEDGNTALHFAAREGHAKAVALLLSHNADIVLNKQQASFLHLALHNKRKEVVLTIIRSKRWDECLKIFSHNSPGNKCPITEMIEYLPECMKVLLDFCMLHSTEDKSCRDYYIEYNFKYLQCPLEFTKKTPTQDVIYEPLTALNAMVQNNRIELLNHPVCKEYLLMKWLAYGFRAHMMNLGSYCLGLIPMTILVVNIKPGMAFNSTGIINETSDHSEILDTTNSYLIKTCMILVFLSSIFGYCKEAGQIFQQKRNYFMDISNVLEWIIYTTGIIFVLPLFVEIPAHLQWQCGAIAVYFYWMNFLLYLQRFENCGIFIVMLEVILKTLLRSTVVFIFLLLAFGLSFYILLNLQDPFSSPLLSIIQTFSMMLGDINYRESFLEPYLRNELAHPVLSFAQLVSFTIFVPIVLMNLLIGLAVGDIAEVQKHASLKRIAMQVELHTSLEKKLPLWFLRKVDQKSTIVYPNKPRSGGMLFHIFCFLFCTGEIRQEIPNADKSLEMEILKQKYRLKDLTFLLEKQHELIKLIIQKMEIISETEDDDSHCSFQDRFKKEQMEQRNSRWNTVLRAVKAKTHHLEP

TRPA1 [3] = molecular target: T2, TRPA1; test: excised-patch single-channel recording and calcium imaging, […]

T1 sequence (O75762 whole entry C641A): as the sequence (O75762 whole entry) above, with C641A counted along it

Row | EC50 (TRPA1 [1]) [µM] | EC50 (TRPA1 [2]) [µM] | Compound | excised-patch single-channel recording and calcium imaging, 1 mM (TRPA1 [3])
1 | 432 ± 9.72 | 343 ± 12.5 | CCCCCCCCCC(=O)CC(O)S(=O)(=O)O (stereo not drawn) [SH, sodium houttuyfonate] | –
2 | – | – | C=CCN=C=S [AITC, allyl isothiocyanate] | consistently observed in both configurations, mirroring the effects of AITC, a membrane-permeable TRPA1 agonist
